Measurements from patent US7696248B2 (Eli Lilly and Company, priority 2005, dated 2010).

Target: cloned human glucagon receptor (Homo sapiens, UniProt P47871)
Test: Glucagon Receptor (hGlucR) Binding Assay
Protocol: This plasmid DNA is transfected into 293 HEK cells and selected with 200 μg/mL Hygromycin.
Crude plasma membranes are prepared using cells from suspension culture. The cells are lysed on ice in hypotonic buffer containing 25 mM Tris HCL, pH 7.5, 1 mM MgCl2, DNAse1, 20 u/mL, and Roche Complete Inhibitors-without EDTA. The cell suspension is homogenized with a glass dounce homogenizer using a Teflon pestle for 25 strokes. The homogenate is centrifuged at 4 degrees C. at 1800×g for 15 mins. The supernate is collected and the pellet is resuspended in hypotonic buffer and rehomogenized. The mixture is centrifuged at 1800×g for 15 mins. The second supernate is combined with the first supernate. The combined supernates are recentrifuged at 1800×g for 15 mins to clarify. The clarified supernate is transferred to high speed tubes and centrifuged at 25000×g for 30 minutes at 4 degrees C. The membrane pellet is resuspended in homogenization buffer and stored as frozen aliquots at −80 degree C. freezer until needed.
The specific activity is 2200 Ci/mmol.
The binding buffer contains 25 mM Hepes, pH 7.4, 2.5 mM CaCl2, 1 mM MgCl2, 0.1% fatty acid free BSA, (ICN), 0.003% tween-20, and Roche Complete Inhibitors without EDTA. […] Test compounds are dissolved in DMSO and serially diluted in DMSO. […] Plates are read with a MicroBeta after 14 hours of settling time at room temp. […]

cloned human glucagon receptor, sequence (P47871 26-477): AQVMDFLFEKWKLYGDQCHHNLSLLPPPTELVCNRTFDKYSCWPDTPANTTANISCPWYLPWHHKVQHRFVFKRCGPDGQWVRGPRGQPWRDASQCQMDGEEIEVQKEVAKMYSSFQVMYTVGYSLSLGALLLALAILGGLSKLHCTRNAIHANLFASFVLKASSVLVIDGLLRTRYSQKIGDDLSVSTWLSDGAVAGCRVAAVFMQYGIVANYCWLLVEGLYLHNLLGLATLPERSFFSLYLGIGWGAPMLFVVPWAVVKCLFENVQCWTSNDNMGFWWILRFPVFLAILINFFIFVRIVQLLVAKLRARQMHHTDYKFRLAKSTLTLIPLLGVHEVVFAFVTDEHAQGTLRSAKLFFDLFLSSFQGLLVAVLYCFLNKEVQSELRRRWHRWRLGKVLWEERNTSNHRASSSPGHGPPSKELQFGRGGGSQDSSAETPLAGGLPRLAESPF

SMILES: CCCCCC(Nc1ccc(-c2ccc(C#N)cc2)cc1)c1ccc(C(=O)NCCC(=O)O)cc1 (centres unmarked)
- Ki: 173 nM

SMILES: CC(C)CC(Nc1ccc(-c2ccc(C(C)(C)C)cc2)cc1)c1ccc(C(=O)NCCC(=O)O)cc1 (centres unmarked)
- Ki: 40 nM
